# Data taken from patent publication EP0013067A1, “Bicyclic beta-lactam antibacterial agents, their use in pharmaceutical compositions, processes for their preparation and intermediates for use in such processes” (BEECHAM GROUP PLC, priority 1978, dated 1980).
# Where two headings read alike, the source gives them in different places.
# What was measured:
# Assay type in all cases: cell-based
# Bacillus subtilis A = experiment: MIC, DST agar + 10% horse blood; conditions: read-out: MIC Agar
# Excerpt: (§1) The ninimum inhibitory concentrations (MIC) cf this compound required to inhibit the growth of various bacteria are tabulated balow: […]
# Citrobacter freundii E8 = experiment: MIC, DST agar + 10% horse blood
# Excerpt: as §1
# E. coli ESS = experiment: MIC, DST agar + 10% horse blood; conditions: Escherichia coli, inoculum 0.001 ml of an undilute overnight broth culture
# Excerpt: as §1
# Enterobacter cloacae N1 = experiment: MIC, DST agar + 10% horse blood; conditions: Enterobacter cloacae, N1, read-out: MIC Agar
# Excerpt: as §1
# Escherichia coli 0111 [1] = experiment: MIC, DST agar + 10% horse blood; conditions: Escherichia coli 0111, inoculum 0.001 ml of an undilute overnight broth culture
# Excerpt: as §1
# Escherichia coli JT 39 [2] = experiment: MIC, DST agar + 10% horse blood
# Excerpt: as §1
# Klebsiella aerogenes A [3] = experiment: MIC, DST agar + 10% horse blood; conditions: read-out: MIC Agar
# Excerpt: as §1
# Proteus mirabilis C977 [4] = experiment: MIC, DST agar + 10% horse blood
# Excerpt: as §1
# Proteus morganii I580 = experiment: MIC, DST agar + 10% horse blood; conditions: Morganella morganii
# Excerpt: as §1
# Proteus rettgeri WM16 = experiment: MIC, DST agar + 10% horse blood; conditions: Providencia rettgeri
# Excerpt: as §1
# Proteus vulgaris W091 = experiment: MIC, DST agar + 10% horse blood
# Excerpt: as §1
# Pseudomonas aeruginosa A [5] = experiment: MIC, DST agar + 10% horse blood; conditions: read-out: MIC Agar
# Excerpt: as §1
# [6] = tested on: Salmonella typhimurium CT10; experiment: MIC, DST agar + 10% horse blood; conditions: Salmonella enterica, read-out: MIC Agar
# Excerpt: as §1
# Serratia marcescens US20 = experiment: MIC, DST agar + 10% horse blood
# Excerpt: as §1
# Shigella sonnei MB 11967 = experiment: MIC, DST agar + 10% horse blood; conditions: MB11967, inoculum 0.001 ml of an undilute overnight broth culture
# Excerpt: as §1
# [7] = tested on: Staphylococcus aureus 1517; experiment: MIC, DST agar + 10% horse blood
# Excerpt: as §1
# [8] = tested on: Staphylococcus aureus Oxford; experiment: MIC, DST agar + 10% horse blood; conditions: read-out: MIC Agar
# Excerpt: as §1
# [9] = tested on: Staphylococcus aureus Russell; experiment: MIC, DST agar + 10% horse blood; conditions: read-out: MIC Agar
# Excerpt: as §1
# Streptococcus faecalis I = experiment: MIC, DST agar + 10% horse blood; conditions: Enterococcus faecalis, read-out: MIC Agar
# Excerpt: as §1
# [10] = tested on: Streptococcus pneumoniae CN33; experiment: MIC, DST agar + 10% horse blood
# Excerpt: as §1
# [11] = tested on: Streptococcus pyogenes CN10; experiment: MIC, DST agar + 10% horse blood
# Excerpt: as §1
# Escherichia coli 0111 [12] = experiment: MIC, microtitre using Nutrient broth; conditions: Microtitre using Nutrient broth, inoculum 0.001 ml of an undilute overnight broth culture
# Excerpt: as §1
# Escherichia coli JT 39 [13] = experiment: MIC, microtitre using Nutrient broth
# Excerpt: as §1
# Klebsiella aerogenes A [14] = experiment: MIC, microtitre using Nutrient broth; conditions: read-out: MIC Broth
# Excerpt: as §1
# Proteus mirabilis C977 [15] = experiment: MIC, microtitre using Nutrient broth
# Excerpt: as §1
# Pseudomonas aeruginosa A [16] = experiment: MIC, microtitre using Nutrient broth; conditions: read-out: MIC Broth
# Excerpt: as §1
# [17] = tested on: Staphylococcus aureus Oxford; experiment: MIC, microtitre using Nutrient broth; conditions: read-out: MIC Broth
# Excerpt: as §1
# [18] = tested on: Staphylococcus aureus Russell; experiment: MIC, microtitre using Nutrient broth; conditions: read-out: MIC Broth
# Excerpt: as §1
# [19] = antibacterial activity (general statement, no method given); conditions: prepared and tested by the applicant; no method or organisms given
# [20] = Citrobacter freundii, E8, read-out: MIC Agar
# [21] = Escherichia coli, JT39, read-out: MIC Agar
# [22] = Proteus mirabilis, C977, read-out: MIC Agar
# [23] = Proteus vulgaris, W091, read-out: MIC Agar
# [24] = Serratia marcescens, US20, read-out: MIC Agar
# [25] = Staphylococcus aureus, 1517, read-out: MIC Agar
# [26] = Streptococcus pneumoniae, CN33, read-out: MIC Agar
# [27] = Streptococcus pyogenes, CN10, read-out: MIC Agar
# [28] = Escherichia coli, JT39, read-out: MIC Broth
# [29] = Proteus mirabilis, C977, read-out: MIC Broth
# [30] = Bacillus subtilis A, DST agar + 10% horse blood, inoculum 0.001 ml of an undilute overnight broth culture
# [31] = Staphylococcus aureus Oxford, DST agar + 10% horse blood, inoculum 0.001 ml of an undilute overnight broth culture
# [32] = Staphylococcus aureus Russell, DST agar + 10% horse blood, inoculum 0.001 ml of an undilute overnight broth culture
# [33] = Streptococcus pyogenes CN10, DST agar + 10% horse blood, inoculum 0.001 ml of an undilute overnight broth culture, read-out: MIC Agar
# [34] = Staphylococcus aureus Oxford, Microtitre using Nutrient broth, inoculum 0.001 ml of an undilute overnight broth culture
# [35] = Staphylococcus aureus Russell, Microtitre using Nutrient broth, inoculum 0.001 ml of an undilute overnight broth culture
compound,measurement,setting,value
"COCOCC1=C(C(=O)[O-])N2C(=O)C[C@H]2S1.[Na+] [compound 25, Sodium 2-methoxymethoxymethylpenem-3-carboxylate]",MIC,Bacillus subtilis A; Bacillus subtilis,1.2 µg/mL
same,MIC,Citrobacter freundii E8; [20],12.5 µg/mL
same,MIC,E. coli ESS,2.5 µg/mL
same,MIC,Enterobacter cloacae N1,> 50 µg/mL
same,MIC,Escherichia coli 0111 [1],5 µg/mL
same,MIC,Escherichia coli JT 39 [2]; [21],> 50 µg/mL
same,MIC,Klebsiella aerogenes A [3]; Klebsiella aerogenes,25 µg/mL
same,MIC,Proteus mirabilis C977 [4]; [22],12.5 µg/mL
same,MIC,"Proteus morganii I580; I580, read-out: MIC Agar",> 50 µg/mL
same,MIC,"Proteus rettgeri WM16; WM16, read-out: MIC Agar",25 µg/mL
same,MIC,Proteus vulgaris W091; [23],> 50 µg/mL
same,MIC,Pseudomonas aeruginosa A [5]; Pseudomonas aeruginosa,> 50 µg/mL
same,MIC,[6]; TYPHIMURIUM,5 µg/mL
same,MIC,Serratia marcescens US20; [24],25 µg/mL
same,MIC,Shigella sonnei MB 11967,5 µg/mL
same,MIC,[7]; [25],> 50 µg/mL
same,MIC,[8]; Staphylococcus aureus,2.5 µg/mL
same,MIC,[9]; Staphylococcus aureus,5 µg/mL
same,MIC,Streptococcus faecalis I,50 µg/mL
same,MIC,[10]; [26],0.2 µg/mL
same,MIC,[11]; [27],0.5 µg/mL
same,MIC,Escherichia coli 0111 [12],16 µg/mL
same,MIC,Escherichia coli JT 39 [13]; [28],125 µg/mL
same,MIC,Klebsiella aerogenes A [14]; Klebsiella aerogenes,16 µg/mL
same,MIC,Proteus mirabilis C977 [15]; [29],16 µg/mL
same,MIC,Pseudomonas aeruginosa A [16]; Pseudomonas aeruginosa,500 µg/mL
same,MIC,[17]; Staphylococcus aureus,2 µg/mL
same,MIC,[18]; Staphylococcus aureus,8 µg/mL
"CC(=O)NCCOCC1=C(C(=O)O)N2C(=O)CC2S1 (stereo not drawn) [compound 23, Sodium 2-(2-acetamidoethoxy)methylponom-3-carooxylate]",MIC,Bacillus subtilis A; [30],2.5 µg/mL
same,MIC,"Citrobacter freundii E8; Citrobacter freundii E8, DST agar + 10% horse blood, inoculum 0.001 ml of an undilute overnight broth culture, read-out: MIC Agar",25 µg/mL
same,MIC,E. coli ESS,10 µg/mL
same,MIC,Escherichia coli 0111 [1],25 µg/mL
same,MIC,"Escherichia coli JT 39 [2]; JT39, Escherichia coli JT 39, DST agar + 10% horse blood, inoculum 0.001 ml of an undilute overnight broth culture, read-out: MIC Agar",> 100 µg/mL
same,MIC,"Klebsiella aerogenes A [3]; Klebsiella aerogenes A, DST agar + 10% horse blood, inoculum 0.001 ml of an undilute overnight broth culture",100 µg/mL
same,MIC,"Proteus mirabilis C977 [4]; Proteus mirabilis C977, DST agar + 10% horse blood, inoculum 0.001 ml of an undilute overnight broth culture, read-out: MIC Agar",25 µg/mL
same,MIC,"Proteus morganii I580; Proteus morganii I580, DST agar + 10% horse blood, inoculum 0.001 ml of an undilute overnight broth culture, read-out: MIC Agar",> 100 µg/mL
same,MIC,"Proteus rettgeri WM16; Proteus rettgeri WM16, DST agar + 10% horse blood, inoculum 0.001 ml of an undilute overnight broth culture, read-out: MIC Agar",> 100 µg/mL
same,MIC,"Proteus vulgaris W091; Proteus vulgaris W091, DST agar + 10% horse blood, inoculum 0.001 ml of an undilute overnight broth culture, read-out: MIC Agar",> 100 µg/mL
same,MIC,"Pseudomonas aeruginosa A [5]; Pseudomonas aeruginosa A, DST agar + 10% horse blood, inoculum 0.001 ml of an undilute overnight broth culture",> 100 µg/mL
same,MIC,"[6]; Salmonella typhimurium CT10, DST agar + 10% horse blood, inoculum 0.001 ml of an undilute overnight broth culture",25 µg/mL
same,MIC,"Serratia marcescens US20; Serratia marcescens US20, DST agar + 10% horse blood, inoculum 0.001 ml of an undilute overnight broth culture, read-out: MIC Agar",100 µg/mL
same,MIC,"[7]; Staphylococcus aureus 1517, DST agar + 10% horse blood, inoculum 0.001 ml of an undilute overnight broth culture, read-out: MIC Agar",50 µg/mL
same,MIC,[8]; [31],2.5 µg/mL
same,MIC,[9]; [32],25 µg/mL
same,MIC,"Streptococcus faecalis I; Streptococcus faecalis I, DST agar + 10% horse blood, inoculum 0.001 ml of an undilute overnight broth culture",> 100 µg/mL
same,MIC,"[10]; Streptococcus pneumoniae CN33, DST agar + 10% horse blood, inoculum 0.001 ml of an undilute overnight broth culture, read-out: MIC Agar",0.5 µg/mL
same,MIC,[11]; [33],1 µg/mL
same,MIC,Escherichia coli 0111 [12],31 µg/mL
same,MIC,"Escherichia coli JT 39 [13]; JT39, Escherichia coli JT 39, Microtitre using Nutrient broth, inoculum 0.001 ml of an undilute overnight broth culture, read-out: MIC Broth",250 µg/mL
same,MIC,"Klebsiella aerogenes A [14]; Klebsiella aerogenes A, Microtitre using Nutrient broth, inoculum 0.001 ml of an undilute overnight broth culture",62 µg/mL
same,MIC,"Proteus mirabilis C977 [15]; Proteus mirabilis C977, Microtitre using Nutrient broth, inoculum 0.001 ml of an undilute overnight broth culture, read-out: MIC Broth",31 µg/mL
same,MIC,"Pseudomonas aeruginosa A [16]; Pseudomonas aeruginosa A, Microtitre using Nutrient broth, inoculum 0.001 ml of an undilute overnight broth culture",> 500 µg/mL
same,MIC,[17]; [34],4 µg/mL
same,MIC,[18]; [35],16 µg/mL
"CNC(=O)OCC1=C(C(=O)O)N2C(=O)CC2S1 (stereo not drawn) [compound 36, Sodium 2-N-methylcarbamoyloxymethylpenem-3-carboxylate]",MIC,Bacillus subtilis A; [30],2.5 µg/mL
same,MIC,[8]; [31],12.5 µg/mL
same,MIC,[9]; [32],12.5 µg/mL
same,MIC,[11]; [33],25 µg/mL
same,MIC,[17]; [34],8 µg/mL
same,MIC,[18]; [35],16 µg/mL
"CCOC(C)OCC1=C(C(=O)[O-])N2C(=O)C[C@H]2S1.[Na+] (stereo partly drawn) [compound 34, Sodium 2-(1-ethoxyethoxy)methylpenem-3-carboxylate]",MIC,[8]; Staphylococcus aureus,2.5 µg/mL
same,MIC,[9]; Staphylococcus aureus,10 µg/mL
same,MIC,[10]; [26],1 µg/mL
same,MIC,[11]; [27],1 µg/mL
"CC(=O)NCOCC1=C(C(=O)[O-])N2C(=O)C[C@H]2S1.[Na+] [compound 29, Sodium 2-acetamidomethoxymethylpenem-3-carboxylate]",MIC,Bacillus subtilis A; Bacillus subtilis,1.2 µg/mL
same,MIC,Citrobacter freundii E8; [20],5 µg/mL
same,MIC,E. coli ESS,2.5 µg/mL
same,MIC,Enterobacter cloacae N1,> 50 µg/mL
same,MIC,Escherichia coli 0111 [1],5 µg/mL
same,MIC,Escherichia coli JT 39 [2]; [21],> 50 µg/mL
same,MIC,Klebsiella aerogenes A [3]; Klebsiella aerogenes,50 µg/mL
same,MIC,Proteus mirabilis C977 [4]; [22],12.5 µg/mL
same,MIC,"Proteus morganii I580; I580, read-out: MIC Agar",> 50 µg/mL
same,MIC,"Proteus rettgeri WM16; WM16, read-out: MIC Agar",50 µg/mL
same,MIC,Proteus vulgaris W091; [23],> 50 µg/mL
same,MIC,Pseudomonas aeruginosa A [5]; Pseudomonas aeruginosa,> 50 µg/mL
same,MIC,[6]; TYPHIMURIUM,5 µg/mL
same,MIC,Serratia marcescens US20; [24],25 µg/mL
same,MIC,Shigella sonnei MB 11967,5 µg/mL
same,MIC,[7]; [25],50 µg/mL
same,MIC,[8]; Staphylococcus aureus,2.5 µg/mL
same,MIC,[9]; Staphylococcus aureus,12.5 µg/mL
same,MIC,Streptococcus faecalis I,50 µg/mL
same,MIC,[10]; [26],0.2 µg/mL
same,MIC,[11]; [27],0.5 µg/mL
same,MIC,Escherichia coli 0111 [12],16 µg/mL
same,MIC,Escherichia coli JT 39 [13]; [28],125 µg/mL
same,MIC,Klebsiella aerogenes A [14]; Klebsiella aerogenes,62 µg/mL
same,MIC,Proteus mirabilis C977 [15]; [29],31 µg/mL
same,MIC,Pseudomonas aeruginosa A [16]; Pseudomonas aeruginosa,> 500 µg/mL
same,MIC,[17]; Staphylococcus aureus,8 µg/mL
same,MIC,[18]; Staphylococcus aureus,16 µg/mL
O=C(O)C1=CSC2CC(=O)N12 (stereo not drawn),antibacterial activity,[19],somewhat disappointing degree of antibacterial activity
